Laboratory results from PMC7170299, “Design, synthesis, molecular modelling and biological evaluation of novel 3-(2-naphthyl)-1-phenyl-1H-pyrazole derivatives as potent antioxidants and 15-Lipoxygenase inhibitors” (Journal of Enzyme Inhibition and Medicinal Chemistry, 2020).

Columns and labels:
[1] = system: lipid peroxidation (MDA) in liver; assay: In vivo lipid peroxide level (TBARS/MDA) in liver homogenate; set-up: species or system male Wistar albino rats; conditions: rat liver; 100 mg/kg orally for 3 days; mean ± SEM, n = 6
Description: (§1) The complete progress of the experiment was conducted using male Wistar albino rats (200–250 g), delivered by the Institutional Breeding House, Egypt, reared and maintained in the animal house of the institution. The animals had free access to food and water ad libitum and maintained in a controlled environment under standard conditions of temperature and humidity with an alternating 12 h light and dark cycle for about a week for acclimatization. The protocol of the study was approved by the Animal Ethics Committee of the Faculty of Pharmacy, Helwan University (ethical code number: 05A2019; date: October 2019). The study was conducted in accordance with the EC, directive 86/609/EEC for animal experiments.
(§2) Rats are weighed at the beginning and at the end of experiment. Fifty-four male albino rats (n=6) were divided into nine different groups. Group I served as a control group and treated with the same volume vehicle only. Group II treated with 100 mg/kg of Ascorbic acid as standard antioxidant drug. Groups (III–IX) orally administered 100 mg/kg of compounds 3a, 4e, 5b, 5c, 6a, 6c, 6e, respectively, for 3 days. The animals were sacrificed by cervical dislocation 24 h after the last dose. Sacrificing is carried out at the same time of the day, to avoid the circadian variation in the level of tissue GSH[53]. Each liver was excised, weighed, rinsed in ice-cold normal saline and frozen for not more than 72 h await analysis of endogenous antioxidant status (GSH levels and CAT activity) and lipid peroxide concentrations. For performing biochemical assays, a 10% liver homogenate in 10 mM phosphate buffer was prepared using tissue homogeniser (Glas-Col®, Cat no.099C K6424, TERRE HAUTE, USA).
Lipid peroxidation level in the liver homogenates was determined as thiobarbituric acid reactive substances (TBARS) by measuring malondialdehyde ‘MDA’ level according to Mihara and Uchiyama[56]. Briefly, 0.5 mL supernatant of tissue homogenate was mixed with 0.6% thiobarbituric acid (TBA) and 1% orthophosphoric acid solution, and heated in a boiling water bath for 45 min. The pink-coloured chromogen formed by the reaction of TBA with MDA was extracted by n-butanol and measured at 535 nm. The results were expressed as nmol/g tissue.

[2] = Superoxide scavenging assay (pyrogallol autoxidation); conditions: mean ± SEM of three experiments; pyrogallol autoxidation, 325 nm
Description: The improved pyrogallol autoxidation method was used to determine O2^−. RSA of all synthesized compounds as previously described. Briefly, 50 µL of test compounds (12.5, 25, 50,100, and 200 µg/mL) was added to 2900 µl of […] Tris HCl buffer (0.05 M, pH 7.4) containing 1-mM Na2EDTA. Next, 50 µL of 60-mM pyrogallol in1mM HCl had been thoroughly mixed with the mixture. The absorbance of the reaction mixture was measured at A325 nm every 30 s for 5 min. O2^− RSA was expressed by the oxidation degree of a test group in comparison to that of the control. The absorbance at 325 nm was measured against the Tris-HCl buffer every 30 s for 5 min. The percentage of scavenging effect was calculated using the following equation: O2^− radical scavenging %=[(ΔA325, control/T)−(ΔA325nm, sample/T)/ΔA325nm, control/T]×100 where ΔA325 nm, control is the increase in A325 nm of the reaction mixture without the sample and ΔA325 nm, sample is that for the mixture with the sample; T=5 min. The experiments were performed in triplicate.

[3] = DPPH radical scavenging assay; conditions: mean ± SEM of three experiments; 30 min, 517 nm
Description: The DPPH scavenging activity of all synthesized compounds was measured as previously described by Nahar et al.[48] with some modifications. Briefly, 100 µL of different concentrations of the tested compounds (12.5, 25, 50, 100, and 200 µg/mL) were pipetted into a 96-well plate. Then, 100 µL of 100-µM DPPH methanolic solution were added to each well and the plate was incubated protected from light at room temperature for 30 min. The absorbance of the solution was measured at λ517 nm.[49] Ascorbic acid was used as the positive control while DMSO was the negative control. The percentage of DPPH scavenging activity was calculated according to the following equation: % of DPPH scavenging=[(Acontrol–Asample)/Acontrol] ×100, where Acontrol is the absorbance of the control reaction (with all reagents except the test compound), and Asample is the absorbance of the test sample. […] All tests were performed in triplicates.

[4] = system: Catalase (CAT) activity in liver; assay: In vivo catalase (CAT) activity in liver homogenate; set-up: species or system male Wistar albino rats; conditions: rat liver; 100 mg/kg orally for 3 days; mean ± SEM, n = 6
Description: as §1, §2
Catalase activity in 10% liver homogenates was determined spectrophotometrically according to Sinha AK[54]. The decrease in absorbance at 240 nm due to H2O2 decomposition was measured and the results were expressed in U/mg tissue.

[5] = NO scavenging assay (sodium nitroprusside / Griess reagent); conditions: mean ± SEM of three experiments; 90 min, 546 nm
Description: The NO scavenging activity of all synthesized compounds was measured as previously described by Ho et al.[50] Briefly, 50 µL of different concentrations of the tested compounds (12.5, 25, 50,100, and 200 µg/mL) were pipetted into a 96-well plate. Then, 50 µL of 10-mM sodium nitroprussides dissolved in phosphate-buffered saline PBS (pH 7.4) were added to each well and the plate was incubated for 90 min at room temperature. Next, an equal volume of Griess reagent (1% of sulphanilamide and 0.1% of naphthyl ethylene diamine in 2.5% […]) was added to each well to measure the nitrite content. The absorbance of the formed pink-coloured chromophore was measured at λ 546 nm. DMSO and ascorbic acid were used as the negative and positive control, respectively. All tests were performed in triplicate. The percentage of NO scavenging activity was calculated according to the following equation: % of NO scavenging=[(Acontrol−Asample)/Acontrol]×100 where Acontrol is the absorbance of the control reaction (with all reagents except the test compound), and Asample is the absorbance of the test sample.

[6] = system: glutathione (GSH) in liver; assay: In vivo reduced glutathione (GSH) level in liver homogenate; set-up: species or system male Wistar albino rats; conditions: rat liver; 100 mg/kg orally for 3 days; mean ± SEM, n = 6
Description: as §1, §2
Levels of glutathione (GSH) in liver homogenates were assayed by the deproteinization of tissue homogenate. Then […] supernatant was mixed with di-potassium hydrogen phosphate buffer (pH 8) and 0.4% 5,5′-dithiobis-2-nitrobenzoic acid (Ellman’s reagent). The yellow-coloured substance formed was measured at 412 nm. The results were expressed as GSH mg/g tissue.

[7] = set-up: method as in PMID 24752861; conditions: at 10^−4 M concentration; cited from earlier work
Soybean 15-LOX enzyme = target: T1, Soybean 15-LOX enzyme (Glycine max, UniProt P08170); assay: In vitro lipoxygenase inhibition (Cayman lipoxygenase inhibitor screening assay kit); type: biochemical; conditions: mean ± SEM of three experiments; substrate arachidonic acid
T1 construct: purchased Cayman Chemical 760700
T1 sequence (P08170 1-839): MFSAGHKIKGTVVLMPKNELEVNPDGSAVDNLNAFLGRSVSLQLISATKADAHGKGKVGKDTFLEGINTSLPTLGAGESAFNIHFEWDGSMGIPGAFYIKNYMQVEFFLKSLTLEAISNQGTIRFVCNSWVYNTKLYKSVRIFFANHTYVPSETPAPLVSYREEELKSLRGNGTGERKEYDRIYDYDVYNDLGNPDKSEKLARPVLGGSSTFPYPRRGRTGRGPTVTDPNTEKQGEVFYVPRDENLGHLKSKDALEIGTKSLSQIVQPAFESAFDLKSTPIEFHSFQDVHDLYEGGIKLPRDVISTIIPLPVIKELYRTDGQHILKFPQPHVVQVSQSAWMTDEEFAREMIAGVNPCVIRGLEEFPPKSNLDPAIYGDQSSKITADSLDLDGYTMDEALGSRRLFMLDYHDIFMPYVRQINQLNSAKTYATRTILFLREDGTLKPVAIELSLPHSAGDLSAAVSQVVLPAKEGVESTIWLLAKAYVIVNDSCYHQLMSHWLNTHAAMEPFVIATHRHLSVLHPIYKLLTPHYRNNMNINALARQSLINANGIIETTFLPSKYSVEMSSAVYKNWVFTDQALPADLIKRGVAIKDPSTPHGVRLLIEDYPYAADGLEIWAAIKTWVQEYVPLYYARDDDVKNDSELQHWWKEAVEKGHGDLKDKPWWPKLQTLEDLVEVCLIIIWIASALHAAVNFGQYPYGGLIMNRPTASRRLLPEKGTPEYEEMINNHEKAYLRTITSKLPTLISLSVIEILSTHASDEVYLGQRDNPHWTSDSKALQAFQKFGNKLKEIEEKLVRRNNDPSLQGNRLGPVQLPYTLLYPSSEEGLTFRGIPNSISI
Description: The assay was performed using Cayman’s lipoxygenase inhibitor screening assay kit (Catalog No. 760700, Cayman Chemical, USA) according to the manufacturer’s instructions. Briefly, 90 µL of 15-LOX was pipetted into a 96-well plate. Next, 10 µL of test compound at concentrations (2.5, 5.0 and 10 µM) dissolved in DMSO were added to each well. The reaction was initiated by adding 10 µL substrate (AA) and the plate was placed on a shaker for at least 5 minutes. Finally, 100 µL of chromogen (prepared according to manufacturer’s instructions) was added to each well to stop enzyme catalysis and develop the reaction. 100 µL of Assay buffer (0.1 M Tris-HCl, pH7.4) was used in blank wells. […] The absorbance of the solution was measured at λ 490–500 nm. The percentage inhibition was calculated according to the following equation: % inhibition =[(IA−Ainhibitor sample)/IA]×100 where (IA) is the 100% initial activity and (Ainhibitor sample) is the absorbance of the test sample. Dose–response curve was plotted between % inhibition and the drug concentration. The non-linear dose–response curve was used for calculating drug concentration showing 50% enzyme inhibition.

SMILES	TBARS [1] [nmol/g tissue]	Superoxide IC50 [2] [µg/mL]	DPPH IC50 [3] [µg/mL]	CAT [4] [U/mg tissue]	NO IC50 [5] [µg/mL]	GSH [6] [mg/g tissue]	DPPH scavenging activity [7] [%]	IC50 (Soybean 15-LOX enzyme) [nM]	melting point [°C]
O=C1O[C@H]([C@@H](O)CO)C(O)=C1O [Ascorbic acid, reference compound]	0.392 ± 0.07	124.99 ± 1.32	13.67 ± 0.97	42.56 ± 3.76	37.9 ± 1.31	8.25 ± 0.45			
Cc1cc(C(C)(C)C)c(O)c(C(C)(C)C)c1 [BHT7, butylated hydroxy toluene]							20		
c1ccc(C2=NOC(c3cn(-c4ccccc4)nc3-c3ccc4ccccc4c3)C2)cc1 (stereo not shown) [Compound 5a, 5-(3-Naphthalen-2-yl-1-phenyl-1H-pyrazol-4-yl)-3-phenyl-4,5-dihydro-isoxazole]		192.37 ± 1.74	97.17 ± 1.4		37.5 ± 1.36			5530 ± 70	190 to 191
Clc1ccc(C2=NOC(c3cn(-c4ccccc4)nc3-c3ccc4ccccc4c3)C2)cc1Cl (stereo not shown) [Compound 5e, 3-(3,4-Dichlorophenyl)-5-(3-naphthalen-2-yl-1-phenyl-1H-pyrazol-4-yl)-4,5-dihydro isoxazole]		168.77 ± 1.42	38.44 ± 1.28		96.56 ± 1.4			3000 ± 60	187 to 189
COc1ccc(C2=NN(C(N)=S)C(c3cn(-c4ccccc4)nc3-c3ccc4ccccc4c3)C2)cc1 (stereo not shown) [Compound 6b]		>200	12.02 ± 0.63		198.08 ± 1.28			1900 ± 60	193 to 194
NC(=S)N1N=C(c2ccc(Cl)cc2)CC1c1cn(-c2ccccc2)nc1-c1ccc2ccccc2c1 (stereo not shown) [Compound 6d]		>200	>200		148.08 ± 1.36			1670 ± 30	186 to 187
NS(=O)(=O)c1ccc(N2N=C(c3ccco3)CC2c2cnn(-c3ccccc3)c2)cc1 (stereo not shown) [XI]							19		
